Data on three compounds can be found in ChEMBL document CHEMBL1158819, “Zyzzyanones B-D, dipyrroloquinones from the marine sponge Zyzzya fuliginosa” (J Nat Prod, 2005).

For orientation: IC50 means the concentration at which inhibition is half-maximal. A high value points to lower potency.

≈ marks a conversion by molar mass, not a printed value.

The assay in a line: Cytotoxicity against mouse EAC cells. The format is functional, cell-based. Particulars: Ehrlich.
Compound `CNCCc1c[nH]c2c1C(=O)c1c(-c3ccc(O)cc3)c[nH]c1C2=O` [ZYZZYANONE B] had an IC50 of 25 µg/mL (≈ 74.5 µM).

The compound `CN(C=O)CCc1cn(C)c2c1C(=O)c1c(-c3ccc(O)cc3)c[nH]c1C2=O` [ZYZZYANONE C] gave an IC50 of 25 µg/mL (≈ 66.2 µM).

Consider `CN(C=O)CCc1c[nH]c2c1C(=O)c1c(-c3ccc(O)cc3)c[nH]c1C2=O` [ZYZZYANONE D], for which the midpoint of inhibition, the IC50, lay at 25 µg/mL (≈ 68.8 µM).
